{"source": "patent US6894059B1", "about": "“Compounds and methods for treatment of asthma, allergy and inflammatory disorders” (UCB S.A., priority 1999, dated 2005)", "note": "Where a name gives a salt, the structure may show the parent alone."}
{"tested_on": "not given", "assay": "not given", "settings": "not given", "units": {"melting point": "°C"}}
{"smiles": "NC(=O)c1cc(C#CCCN(O)C(N)=O)ccc1OCCN1CCN([C@H](c2ccccc2)c2ccc(Cl)cc2)CC1", "note": "(as salt: HCl) [Compound 64, 2-(2-{4-[(1R)(4-chlorophenyl)phenylmethyl]piperazinyl}ethoxy)-5-[4-(aminohydroxycarbonyl-amino)but-1-ynyl]benzamide]", "melting point": 208}
{"smiles": "NC(=O)N(O)CCCCc1ccc(OCCCCN2CCN([C@H](c3ccccc3)c3ccc(Cl)cc3)CC2)cc1", "note": "(as salt: HCl) [Compound 76, N-{4-[4-(4-{4-[(1R)(4-chlorophenyl)phenylmethyl]piperazinyl}butoxy)phenyl]butyl}amino-N-hydroxyamide]", "melting point": "121 to 123"}
{"smiles": "NC(=O)c1cc(C#CCCN(O)C(N)=O)ccc1OCCN1CCN([C@H](c2ccccc2)c2ccc(Cl)cc2)CC1", "note": "(as salt: citrate) [Compound 93, 5-{4-[(aminocarbonyl) (hydroxy)amino]-1-butynyl}-2-(2-{4-[(R)-(4-chlorophenyl)(phenyl)methyl]-1-piperazinyl}ethoxy)benzamide]", "melting point": "153 to 156"}
{"smiles": "NC(=O)c1cc(C#CCCN(O)C(N)=O)ccc1OCCN1CCN([C@H](c2ccccc2)c2ccc(Cl)cc2)CC1", "note": "(as salt: fumarate) [Compound 89, 5-{4-[(aminocarbonyl) (hydroxy)amino]-1-butynyl}-2-(2-{4-[(R)-(4-chlorophenyl)(phenyl)methyl]-1-piperazinyl}ethoxy)benzamide]", "melting point": "162 to 165"}
{"smiles": "NC(=O)c1cc(C#CCCN(O)C(N)=O)ccc1OCCN1CCN([C@H](c2ccccc2)c2ccc(Cl)cc2)CC1", "note": "(as salt: maleate) [Compound 91, 5-{4-[(aminocarbonyl) (hydroxy)amino]-1-butynyl}-2-(2-{4-[(R)-(4-chlorophenyl)(phenyl)methyl]-1-piperazinyl}ethoxy)benzamide]", "melting point": "169 to 172"}
{"smiles": "NC(=O)c1cc(C#CCCN(O)C(N)=O)ccc1OCCN1CCN([C@H](c2ccccc2)c2ccc(Cl)cc2)CC1", "note": "(as salt: tartrate) [Compound 92, 5-{4-[(aminocarbonyl) (hydroxy)amino]-1-butynyl}-2-(2-{4-[(R)-(4-chlorophenyl)(phenyl)methyl]-1-piperazinyl}ethoxy)benzamide]", "melting point": "155 to 158"}
{"smiles": "NC(=O)N(O)CCCCc1ccc(OCCN2CCN([C@H](c3ccccc3)c3ccc(Cl)cc3)CC2)cc1", "note": "[Compound 17, N-{4-[4-(2-{4-[(1R)(4-chlorophenyl)phenylmethyl]piperazinyl}ethoxy)phenyl]butyl}amino-N-hydroxyamide]", "melting point": "148 to 150"}
{"smiles": "NC(=O)c1cc(C#CCCN(O)C(N)=O)ccc1OCCN1CCN([C@H](c2ccccc2)c2ccc(Cl)cc2)CC1", "note": "[Compound 35, 2-(2-{4-[(1R)(4-chlorophenyl)phenylmethyl]piperazinyl}ethoxy)-5-[4-(aminohydroxycarbonyl-amino)but-1-ynyl]benzamide]", "melting point": "156 to 158"}
{"smiles": "NC(=O)c1cc(C#CCCN(O)C(N)=O)ccc1OCCCN1CCN([C@H](c2ccccc2)c2ccc(Cl)cc2)CC1", "note": "[Compound 62, 2-[3-{4-[(1R)(4-chlorophenyl)phenylmethyl]piperazinyl}propoxy)-5-[4-(aminohydroxycarbonyl-amino)but-1-ynyl]benzamide]", "melting point": "153 to 155"}
{"smiles": "CC(=O)Nc1cc(C#CCCN(O)C(N)=O)ccc1OCCN1CCN([C@H](c2ccccc2)c2ccc(Cl)cc2)CC1", "note": "[Compound 77, N-[2-(2-{4-[(1R)(4-chlorophenyl)phenylmethyl]piperazinyl}ethoxy)-5-[4-(aminohydroxycarbonyl-amino)but-1-ynyl]phenyl] acetamide]", "melting point": "90 to 95"}
{"smiles": "NC(=O)N(O)CCCCc1ccc(OCCCN2CCN([C@H](c3ccccc3)c3ccc(Cl)cc3)CC2)cc1", "note": "[Compound 79, N-{4-[4-(3-{4-[(1R)(4-chlorophenyl)phenylmethyl]piperazinyl}propoxy)phenyl]butyl}amino-N-hydroxyamide]", "melting point": "60 to 65"}
{"smiles": "NC(=O)N(O)CCC#Cc1ccc(OCCCCN2CCN(C(c3ccc(F)cc3)c3ccc(F)cc3)CC2)cc1", "note": "[Compound 80, amino-N-{4-[4-(4-{4-[bis(4-fluorophenyl)methyl]piperazinyl}butoxy)phenyl]but-3-ynyl}-N-hydroxyamide]", "melting point": "64 to 68"}
{"smiles": "NC(=O)N(O)CCCc1ccc(OCCCN2CCN([C@H](c3ccccc3)c3ccc(Cl)cc3)CC2)cc1", "note": "[Compound 82, N-{3-[4-(3-{4-[(1R)(4-chlorophenyl)phenylmethyl]piperazinyl}propoxy)phenyl]propyl}amino-N-hydroxyamide]", "melting point": "52 to 90"}
{"smiles": "NC(=O)N(O)CCC#Cc1ccc(OCCCN2CCN(C(c3ccc(F)cc3)c3ccc(F)cc3)CC2)cc1", "note": "[Compound 83, amino-N-{4-[4-(3-{4-[bis(4-fluorophenyl)methyl]piperazinyl}propoxy)phenyl]but-3-ynyl}-N-hydroxyamide]", "melting point": 78}
{"smiles": "NC(=O)c1cc(CCCCN(O)C(N)=O)ccc1OCCCN1CCN([C@H](c2ccccc2)c2ccc(Cl)cc2)CC1", "note": "[Compound 84, 2-(3-{4-[(1R)(4-chlorophenyl)phenylmethyl]piperazinyl}propoxy)-5-[4-(aminohydroxycarbonyl-amino)butyl]benzamide]", "melting point": "123 to 125"}
{"smiles": "NC(=O)c1cc(CCCCN(O)C(N)=O)ccc1OCCN1CCN(C(c2ccc(F)cc2)c2ccc(F)cc2)CC1", "note": "[Compound 85, 5-{4-[(aminocarbonyl) (hydroxy)amino]butyl}-2-(2-{4-[bis(4-fluorophenyl)methyl]-1-piperazinyl}ethoxy)benzamide]", "melting point": "138 to 140"}
{"smiles": "NC(=O)N(O)CCCc1ccc(OCCCN2CCN(C(c3ccc(F)cc3)c3ccc(F)cc3)CC2)cc1", "note": "[Compound 86, N-{3-[4-(3-{4-[bis(4-fluorophenyl)methyl]-1-piperazinyl}propoxy)phenyl]propyl}-N-hydroxyurea]", "melting point": "30 to 80"}
{"smiles": "NC(=O)N(O)CCC#Cc1ccc(OCCN2CCN(C(c3ccc(F)cc3)c3ccc(F)cc3)CC2)cc1[N+](=O)[O-]", "note": "[Compound 87, N-{4-[4-(2-{4-[bis(4-fluorophenyl)methyl]-1-piperazinyl}ethoxy)-2-nitrophenyl]-3-butynyl}-N-hydroxyurea]", "melting point": "65 to 70"}
{"smiles": "NC(=O)N(O)CCCCc1ccc(OCCN2CCN(C(c3ccc(F)cc3)c3ccc(F)cc3)CC2)cc1", "note": "[Compound 88, N-{4-[4-(2-{4-[bis(4-fluorophenyl)methyl]-1-piperazinyl}ethoxy)phenyl]butyl}-N-hydroxyurea]", "melting point": "140 to 145"}
{"smiles": "NC(=O)N(O)CCC#Cc1ccc(OCCN2CCN([C@H](c3ccccc3)c3ccc(Cl)cc3)CC2)cc1[N+](=O)[O-]", "note": "[Compound 90, N-{4-[4-(2-{4-[(R)-(4-chlorophenyl)(phenyl)methyl]-1-piperazinyl}ethoxy)-2-nitrophenyl]-3-butynyl}-N-hydroxyurea]", "melting point": "70 to 75"}
{"smiles": "NC(=O)N(O)CCCOc1ccc(CCCN2CCN([C@H](c3ccccc3)c3ccc(Cl)cc3)CC2)cc1", "note": "[Compound 94, N-{3-[4-[3-{4-[(R)-(4-chlorophenyl)(phenyl)methyl]-1-piperazinyl}propyl]phenoxy]propyl}-N-hydroxyurea]", "melting point": "64 to 66"}
{"smiles": "NC(=O)N(O)CCC#Cc1ccc(OCC#CCN2CCN([C@H](c3ccccc3)c3ccc(Cl)cc3)CC2)cc1", "note": "[Compound 95, N-(4-{4-[(4-{4-[(R)(4-chlorophenyl)(phenyl)methyl]-1-piperazinyl}-2-butynyl)oxy]phenyl}-3-butynyl)-N-hydroxyurea]", "melting point": "127 to 130"}
{"target": "T1, human cloned H1 receptor (Homo sapiens, UniProt P35367)", "T1 construct": "expressed in transfected cells; host or cells: CHO-K1", "T1 sequence (P35367 whole entry)": "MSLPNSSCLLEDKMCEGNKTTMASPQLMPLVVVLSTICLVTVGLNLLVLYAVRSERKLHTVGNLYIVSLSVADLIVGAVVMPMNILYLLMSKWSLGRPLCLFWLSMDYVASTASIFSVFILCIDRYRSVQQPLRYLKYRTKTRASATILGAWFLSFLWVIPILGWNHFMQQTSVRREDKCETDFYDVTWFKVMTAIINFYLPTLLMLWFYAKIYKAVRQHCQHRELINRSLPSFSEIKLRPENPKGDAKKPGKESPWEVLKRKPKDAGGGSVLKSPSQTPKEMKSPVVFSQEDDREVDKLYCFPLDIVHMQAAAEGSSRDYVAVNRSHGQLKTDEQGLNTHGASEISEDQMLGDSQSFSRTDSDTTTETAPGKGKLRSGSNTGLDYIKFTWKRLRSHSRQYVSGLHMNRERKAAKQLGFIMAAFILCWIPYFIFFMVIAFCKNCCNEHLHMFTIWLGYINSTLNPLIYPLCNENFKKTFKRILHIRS", "assay": "CHO-K1 H1R binding assay (3H-pyrilamine displacement)", "settings": "CHO-K1 membranes, 3H-pyrilamine 2 nM, 3 hours at 37° C.; read-out: CHOH1 KI", "units": {"Ki": "µM"}, "description": "CHO—K1 cells expressing the human cloned H1 receptor are grown to confluence in tissue culture dishes. Cells are harvested using D-PBS buffer (JRH Biosciences), kept at 4° C., centrifuging to pellet cells (4° C., 500 g, 10 min). The final cell pellet is homogenized and resuspended using Tris/sucrose buffer (20 mM Tris, 250 mM sucrose, pH 74 at 4° C. Aliquots of the membrane preparation are stored at −70° C.\nOn the day of assay, the membrane preparation is thawed and centrifuged (TLA100.3 rotor, 4° C., 15 min, 23,000 rpm). The pellet is resuspended in Tris/sucrose buffer initially and then diluted further as necessary using assay buffer A (50 mM Na/KPO4, 2 mM MgCl2, 0.5% (w/v) BSA, pH 7.5).\nFor the binding assay, the membrane preparation, test compound and ^3H-pyrilamine (2 nM final) in buffer A with 1% (v/v) DMSO final are incubated in a 96-well polypropylene plate for 3 hours at 37° C. Non-specific binding is determined in the presence of 10 μM pyrilamine. A 96-well harvester (Packard) is used to harvest the 96-well plate onto a GF/B filter plate pre-treated with 0.1% (v/v) PEI. The plate is counted in a Packard Topcounter after adding Microscint 20 (Packard) scintillation fluid. The Ki for each compound at the histamine H1 receptor is then calculated from these counts."}
{"smiles": "C[C@@H](c1ccc(OCCN2CCN(C(c3ccc(F)cc3)c3ccc(F)cc3)CC2)cc1)N(O)C(N)=O", "note": "(racemic) [Compound 11, amino-N-{[4-(2-{4-[bis(4-fluorophenyl)methyl]piperazinyl}ethoxy)phenyl]ethyl}-N-hydroxyamide]", "Ki": 0.13}
{"target": "T2, human 5-lipoxygenase enzyme (Homo sapiens, UniProt P09917)", "T2 construct": "Blood is drawn from normal human volunteers into tubes containing heparin; endogenous in cells; host or cells: human whole blood, heparinized, stimulated with A23187", "T2 sequence (P09917 1-674)": "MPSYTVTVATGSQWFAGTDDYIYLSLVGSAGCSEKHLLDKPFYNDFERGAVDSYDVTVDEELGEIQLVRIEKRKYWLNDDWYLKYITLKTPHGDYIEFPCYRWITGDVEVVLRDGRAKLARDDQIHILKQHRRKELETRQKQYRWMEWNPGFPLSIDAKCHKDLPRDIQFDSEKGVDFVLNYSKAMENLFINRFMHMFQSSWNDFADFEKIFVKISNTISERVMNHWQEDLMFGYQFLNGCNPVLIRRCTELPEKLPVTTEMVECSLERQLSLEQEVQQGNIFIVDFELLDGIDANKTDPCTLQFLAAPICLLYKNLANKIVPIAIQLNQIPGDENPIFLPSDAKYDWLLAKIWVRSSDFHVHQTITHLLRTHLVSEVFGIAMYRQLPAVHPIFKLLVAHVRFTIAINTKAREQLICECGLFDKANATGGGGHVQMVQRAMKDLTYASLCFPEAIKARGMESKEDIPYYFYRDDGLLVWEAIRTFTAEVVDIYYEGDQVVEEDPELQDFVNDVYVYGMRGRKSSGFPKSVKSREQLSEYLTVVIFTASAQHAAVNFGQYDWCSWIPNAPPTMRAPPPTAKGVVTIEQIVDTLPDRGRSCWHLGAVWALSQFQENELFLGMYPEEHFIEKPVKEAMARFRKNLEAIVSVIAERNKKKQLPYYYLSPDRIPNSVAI", "assay": "Inhibition of LTB4 production in human whole blood stimulated with calcium ionophore A23187", "assay_type": "cell-based", "settings": "A23187 50 μM, LTB4 by EIA, read-out: HWB IC50", "procedure": "This assay examines the ability of a compound to inhibit leukotriene B4 Production from human blood stimulated with calcium ionophore. As this production of leukotriene B4 is mediated via the activation of the 5-lipoxygenase enzyme, this assay is predictive of a compound's ability to inhibit the human 5-lipoxygenase enzyme.\nThe procedure for the assay is as follows. Blood is drawn from normal human volunteers into tubes containing heparin. 1 ml of the heparinized blood is pipetted into a 1.5 ml polypropylene tube. To this sample is added either different concentrations of the test compound (5 μl) dissolved in DMSO or 5 μl of DMSO as a vehicle control. These samples are incubated in a water bath, at […] for 15 min. […] From this a percent inhibition of LTB4 production by each concentration of test compound is calculated and the IC50 for inhibition of LTB4 production for each test compound is determined.", "units": {"IC50": "µM"}}
{"smiles": "C[C@@H](c1ccc(OCCN2CCN(C(c3ccc(F)cc3)c3ccc(F)cc3)CC2)cc1)N(O)C(N)=O", "note": "(racemic) [Compound 11, amino-N-{[4-(2-{4-[bis(4-fluorophenyl)methyl]piperazinyl}ethoxy)phenyl]ethyl}-N-hydroxyamide]", "IC50": 3.63}
